{"source": "patent US6355799B1", "about": "“Substituted benzene compounds, process for their preparation, and herbicidal and defoliant compositions containing them” (ISK Americas Incorporated, priority 1997, dated 2002)", "assay_type_in_all_cases": "in vivo", "key": {"[1]": {"system": "common ragweed (Ambrosia artemisizfolia L., AMBEL)", "experiment": "Post-emerge test, greenhouse herbicide activity screening", "conditions": "post-emerge, 14 days after application, rating scale 0-100", "outline": "(§1)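 Herbicidal damage is scored 0 (none) to 100 (complete plant death) two weeks after a simulated field spray. Rates span 15–1000 g ai/ha, delivered in acetone at 187 l/ha. For post-emergence treatments, plants have 2–3 leaves and the spray carries 0.25% v/v non-ionic surfactant.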"}, "[2]": {"system": "velvetleaf (Abutilon theophrasti, ABUTH)", "experiment": "Post-emerge test, greenhouse herbicide activity screening", "conditions": "post-emerge, 14 days after application, rating scale 0-100", "outline": "as §1"}, "[3]": {"system": "sicklepod (Cassia obtusifolia, CASOB)", "experiment": "Post-emerge test, greenhouse herbicide activity screening", "conditions": "post-emerge, 14 days after application, rating scale 0-100", "outline": "as §1"}, "[4]": {"system": "large crabgrass (Digitaria sanguinalis, DIGSA)", "experiment": "Post-emerge test, greenhouse herbicide activity screening", "conditions": "post-emerge, 14 days after application, rating scale 0-100", "outline": "as §1"}, "[5]": {"system": "ivyleaf morningglory (Ipomoea hederacea, IPOHE)", "experiment": "Post-emerge test, greenhouse herbicide activity screening", "conditions": "post-emerge, 14 days after application, rating scale 0-100", "outline": "as §1"}, "[6]": {"system": "redroot pigweed (Amaranthus retroflexus, AMARE)", "experiment": "Post-emerge test, greenhouse herbicide activity screening", "conditions": "post-emerge, 14 days after application, rating scale 0-100", "outline": "as §1"}, "[7]": {"system": "barnyardgrass (Echinochloa crus-galli, ECHCG)", "experiment": "Post-emerge test, greenhouse herbicide activity screening", "conditions": "post-emerge, 14 days after application, rating scale 0-100", "outline": "as §1"}, "[8]": {"system": "johnsongrass (Sorghum halepense, SORHA)", "experiment": "Post-emerge test, greenhouse herbicide activity screening", "conditions": "post-emerge, 14 days after application, rating scale 0-100", "outline": "as §1"}, "[9]": {"system": "green foxtail (Setaria viridis, SETVI)", "experiment": "Post-emerge test, greenhouse herbicide activity screening", "conditions": "post-emerge, 14 days after application, rating scale 0-100", "outline": "as §1"}, "[10]": {"system": "lambsquarters (Chenopodium album, CHEAL)", "experiment": "Post-emerge test, greenhouse herbicide activity screening", "conditions": "post-emerge, 14 days after application, rating scale 0-100", "outline": "as §1"}, "[11]": {"system": "field corn (Zea mays L., var. Dekalb 535, CORN)", "experiment": "Pre-emerge test, crop safety", "conditions": "rated 14 days after application, 0 = no damage, 100 = complete death", "outline": "(§2)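 Fourteen days after spraying, crop and weed injury was graded visually from 0, no effect, to 100, every plant dead. Test substances were dissolved in acetone and applied at 15–1000 g ai/ha with a flat-fan nozzle. Application was either pre-emergence, one day after sowing, or post-emergence at the 2–3 leaf stage.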"}, "[12]": {"system": "upland rice (Oryza sp., var. Tebonnet, RICE)", "experiment": "Pre-emerge test, crop safety", "conditions": "rated 14 days after application, 0 = no damage, 100 = complete death", "outline": "as §2"}, "[13]": {"system": "field corn (Zea mays L., var. Dekalb 535, CORN)", "experiment": "Post-emerge test, crop safety", "conditions": "post-emerge, 14 days after application, rating scale 0-100", "outline": "(§3)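 Applied at 15–1000 g ai/ha from acetone in 187 l/ha spray volume. Post-emergence applications included 0.25% v/v non-ionic surfactant and reached plants sown 8–21 days before. Pre-emergence applications were incorporated by surface watering. Efficacy or crop damage was rated on a 0–100 scale after 14 days.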"}, "[14]": {"system": "upland rice (Oryza sp., var. Tebonnet, RICE)", "experiment": "Post-emerge test, crop safety", "conditions": "post-emerge, 14 days after application, rating scale 0-100", "outline": "as §3"}, "[15]": {"system": "common ragweed (Ambrosia artemisizfolia L., AMBEL)", "experiment": "Pre-emerge test, greenhouse herbicide activity screening", "conditions": "rated 14 days after application, 0 = no damage, 100 = complete death", "outline": "as §3"}, "[16]": {"system": "velvetleaf (Abutilon theophrasti, ABUTH)", "experiment": "Pre-emerge test, greenhouse herbicide activity screening", "conditions": "rated 14 days after application, 0 = no damage, 100 = complete death", "outline": "as §3"}, "[17]": {"system": "sicklepod (Cassia obtusifolia, CASOB)", "experiment": "Pre-emerge test, greenhouse herbicide activity screening", "conditions": "rated 14 days after application, 0 = no damage, 100 = complete death", "outline": "as §3"}, "[18]": {"system": "large crabgrass (Digitaria sanguinalis, DIGSA)", "experiment": "Pre-emerge test, greenhouse herbicide activity screening", "conditions": "rated 14 days after application, 0 = no damage, 100 = complete death", "outline": "as §3"}, "[19]": {"system": "ivyleaf morningglory (Ipomoea hederacea, IPOHE)", "experiment": "Pre-emerge test, greenhouse herbicide activity screening", "conditions": "rated 14 days after application, 0 = no damage, 100 = complete death", "outline": "as §3"}, "[20]": {"system": "barnyardgrass (Echinochloa crus-galli, ECHCG)", "experiment": "Pre-emerge test, greenhouse herbicide activity screening", "conditions": "rated 14 days after application, 0 = no damage, 100 = complete death", "outline": "as §3"}, "[21]": {"system": "johnsongrass (Sorghum halepense, SORHA)", "experiment": "Pre-emerge test, greenhouse herbicide activity screening", "conditions": "rated 14 days after application, 0 = no damage, 100 = complete death", "outline": "as §3"}, "[22]": {"system": "green foxtail (Setaria viridis, SETVI)", "experiment": "Pre-emerge test, greenhouse herbicide activity screening", "conditions": "rated 14 days after application, 0 = no damage, 100 = complete death", "outline": "as §3"}, "[23]": {"system": "lambsquarters (Chenopodium album, CHEAL)", "experiment": "Pre-emerge test, greenhouse herbicide activity screening", "conditions": "rated 14 days after application, 0 = no damage, 100 = complete death", "outline": "as §3"}, "[24]": {"system": "redroot pigweed (Amaranthus retroflexus, AMARE)", "experiment": "Pre-emerge test, greenhouse herbicide activity screening", "conditions": "rated 14 days after application, 0 = no damage, 100 = complete death", "outline": "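Plants grown in 10 cm pots of sandy loam mix received acetone-dissolved compounds through a moving flat-fan nozzle. Doses ranged from 15 to 1000 g ai/ha. Pre-emerge pots were seeded one day earlier, post-emerge pots 8–21 days earlier. Fourteen days on, each pot was graded 0–100 for damage.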"}}}
{"smiles": "COc1c(Cl)cc(F)c(-n2c(=O)cc(C(F)(F)F)n(C)c2=O)c1NC(=O)c1ccc(Cl)cc1Cl", "note": "[2-58]", "values": [{"measurement": "phytotoxicity rating AMBEL", "setting": "[1]; 63 g ai/ha", "value": 100}, {"measurement": "phytotoxicity rating AMBEL", "setting": "[1]; 250 g ai/ha", "value": 100}, {"measurement": "phytotoxicity rating ABUTH", "setting": "[2]; 63 g ai/ha", "value": 100}, {"measurement": "phytotoxicity rating ABUTH", "setting": "[2]; 250 g ai/ha", "value": 100}, {"measurement": "phytotoxicity rating CASOB", "setting": "[3]; 63 g ai/ha", "value": 100}, {"measurement": "phytotoxicity rating CASOB", "setting": "[3]; 250 g ai/ha", "value": 100}, {"measurement": "phytotoxicity rating DIGSA", "setting": "[4]; 63 g ai/ha", "value": 10}, {"measurement": "phytotoxicity rating DIGSA", "setting": "[4]; 250 g ai/ha", "value": 40}, {"measurement": "phytotoxicity rating IPOHE", "setting": "[5]; 63 g ai/ha", "value": 95}, {"measurement": "phytotoxicity rating IPOHE", "setting": "[5]; 250 g ai/ha", "value": 100}, {"measurement": "phytotoxicity rating AMARE", "setting": "[6]; 63 g ai/ha", "value": 100}, {"measurement": "phytotoxicity rating AMARE", "setting": "[6]; 250 g ai/ha", "value": 100}, {"measurement": "phytotoxicity rating ECHCG", "setting": "[7]; 63 g ai/ha", "value": 20}, {"measurement": "phytotoxicity rating ECHCG", "setting": "[7]; 250 g ai/ha", "value": 90}, {"measurement": "phytotoxicity rating SORHA", "setting": "[8]; 63 g ai/ha", "value": 20}, {"measurement": "phytotoxicity rating SORHA", "setting": "[8]; 250 g ai/ha", "value": 90}, {"measurement": "phytotoxicity rating SETVI", "setting": "[9]; 63 g ai/ha", "value": 50}, {"measurement": "phytotoxicity rating SETVI", "setting": "[9]; 250 g ai/ha", "value": 60}, {"measurement": "phytotoxicity rating CHEAL", "setting": "[10]; 63 g ai/ha", "value": 100}, {"measurement": "phytotoxicity rating CHEAL", "setting": "[10]; 250 g ai/ha", "value": 100}, {"measurement": "Pre-emerge phytotoxicity rating (0-100), crop damage, CORN", "setting": "[11]; 63 g ai/ha", "value": 40}, {"measurement": "Pre-emerge phytotoxicity rating (0-100), crop damage, CORN", "setting": "[11]; 250 g ai/ha", "value": 95}, {"measurement": "Pre-emerge phytotoxicity rating (0-100), crop damage, RICE", "setting": "[12]; 63 g ai/ha", "value": 80}, {"measurement": "Pre-emerge phytotoxicity rating (0-100), crop damage, RICE", "setting": "[12]; 250 g ai/ha", "value": 95}, {"measurement": "phytotoxicity rating CORN", "setting": "[13]; 63 g ai/ha", "value": 40}, {"measurement": "phytotoxicity rating CORN", "setting": "[13]; 250 g ai/ha", "value": 90}, {"measurement": "phytotoxicity rating RICE", "setting": "[14]; 63 g ai/ha", "value": 50}, {"measurement": "phytotoxicity rating RICE", "setting": "[14]; 250 g ai/ha", "value": 85}, {"measurement": "Pre-emerge Herbicidal Activity, phytotoxicity rating (0-100), AMBEL", "setting": "[15]; 63 g ai/ha", "value": 50}, {"measurement": "Pre-emerge Herbicidal Activity, phytotoxicity rating (0-100), AMBEL", "setting": "[15]; 250 g ai/ha", "value": 100}, {"measurement": "Pre-emerge Herbicidal Activity, phytotoxicity rating (0-100), ABUTH", "setting": "[16]; 63 g ai/ha", "value": 100}, {"measurement": "Pre-emerge Herbicidal Activity, phytotoxicity rating (0-100), ABUTH", "setting": "[16]; 250 g ai/ha", "value": 100}, {"measurement": "Pre-emerge Herbicidal Activity, phytotoxicity rating (0-100), CASOB", "setting": "[17]; 63 g ai/ha", "value": 30}, {"measurement": "Pre-emerge Herbicidal Activity, phytotoxicity rating (0-100), CASOB", "setting": "[17]; 250 g ai/ha", "value": 99}, {"measurement": "Pre-emerge Herbicidal Activity, phytotoxicity rating (0-100), DIGSA", "setting": "[18]; 63 g ai/ha", "value": 90}, {"measurement": "Pre-emerge Herbicidal Activity, phytotoxicity rating (0-100), DIGSA", "setting": "[18]; 250 g ai/ha", "value": 100}, {"measurement": "Pre-emerge Herbicidal Activity, phytotoxicity rating (0-100), IPOHE", "setting": "[19]; 63 g ai/ha", "value": 20}, {"measurement": "Pre-emerge Herbicidal Activity, phytotoxicity rating (0-100), IPOHE", "setting": "[19]; 250 g ai/ha", "value": 100}, {"measurement": "Pre-emerge Herbicidal Activity, phytotoxicity rating (0-100), ECHCG", "setting": "[20]; 63 g ai/ha", "value": 50}, {"measurement": "Pre-emerge Herbicidal Activity, phytotoxicity rating (0-100), ECHCG", "setting": "[20]; 250 g ai/ha", "value": 100}, {"measurement": "Pre-emerge Herbicidal Activity, phytotoxicity rating (0-100), SORHA", "setting": "[21]; 63 g ai/ha", "value": 70}, {"measurement": "Pre-emerge Herbicidal Activity, phytotoxicity rating (0-100), SORHA", "setting": "[21]; 250 g ai/ha", "value": 100}, {"measurement": "Pre-emerge Herbicidal Activity, phytotoxicity rating (0-100), SETVI", "setting": "[22]; 63 g ai/ha", "value": 100}, {"measurement": "Pre-emerge Herbicidal Activity, phytotoxicity rating (0-100), SETVI", "setting": "[22]; 250 g ai/ha", "value": 100}, {"measurement": "Pre-emerge Herbicidal Activity, phytotoxicity rating (0-100), CHEAL", "setting": "[23]; 63 g ai/ha", "value": 100}, {"measurement": "Pre-emerge Herbicidal Activity, phytotoxicity rating (0-100), CHEAL", "setting": "[23]; 250 g ai/ha", "value": 100}, {"measurement": "Pre-emerge Herbicidal Activity, phytotoxicity rating (0-100), AMARE", "setting": "[24]; 63 g ai/ha", "value": 100}, {"measurement": "Pre-emerge Herbicidal Activity, phytotoxicity rating (0-100), AMARE", "setting": "[24]; 250 g ai/ha", "value": 100}]}
